Measured values reported in patent US7345082B2, “Phosphinic acids” (Hoffmann-La Roche Inc., priority 2003, dated 2008).

Biological target: T1, purified BACE protein (β-secretase) (Homo sapiens, UniProt P56817)
T1 construct: made in house
Assay: Competitive Radioligand Binding Assay (RLBA)
Settings: β-secretase inhibition; displacement of tritiated Compound A from BACE-coated plates, pH 4.1; read-out: IC50 in vitro
Procedure: Competitive Radioligand Binding Assay (RLBA)
96 well microplates (Optiplate Packard) are coated with purified BACE protein (see e.g. GB 2,385,124: Examples 1 and 2) using a concentration of 1 μg/ml in 30 mM sodium citrate buffer adjusted to pH 5.5. The coating is achieved by incubation of 100 μl/well for 1-3 days at 4° C. The plate is then washed with 2×300 μl/well of 10 mM citrate pH 4.1. To each well 100 μl binding buffer (30 mM citrate, 100 mM NaCl, 0.1% BSA, pH 4.1) is dispensed. The test compound is added in 5 μl from a DMSO stock solution or appropriate dilutions. To this the tracer (tritiated Compound A, see e.g. GB 2,385,124: Example 4) is added in 10 µl/well from a 10 μCi/ml stock solution in binding buffer. After incubation for 1.5-2 hours in a humid chamber at ambient temperature the plate is washed with 2×300 μl/well water and flipped on a dry towel. Following the addition of 50 μl/well Micro-Scint20 (Packard) the plate is sealed and vibrated for 5 seconds. The bound radioactivity is counted on a Topcount (Packard). Total binding is typically between 2000 and 10000 cpm/well depending mainly on the purity and concentration of the BACE protein. Non-specific binding as assessed by competition with >1 μM peptidic inhibitor (Bachem # H-4848) is typically between 30 and 300 cpm/well. The IC-50 values are calculated by Microsoft Excel FIT.

T1 sequence (P56817 46-501): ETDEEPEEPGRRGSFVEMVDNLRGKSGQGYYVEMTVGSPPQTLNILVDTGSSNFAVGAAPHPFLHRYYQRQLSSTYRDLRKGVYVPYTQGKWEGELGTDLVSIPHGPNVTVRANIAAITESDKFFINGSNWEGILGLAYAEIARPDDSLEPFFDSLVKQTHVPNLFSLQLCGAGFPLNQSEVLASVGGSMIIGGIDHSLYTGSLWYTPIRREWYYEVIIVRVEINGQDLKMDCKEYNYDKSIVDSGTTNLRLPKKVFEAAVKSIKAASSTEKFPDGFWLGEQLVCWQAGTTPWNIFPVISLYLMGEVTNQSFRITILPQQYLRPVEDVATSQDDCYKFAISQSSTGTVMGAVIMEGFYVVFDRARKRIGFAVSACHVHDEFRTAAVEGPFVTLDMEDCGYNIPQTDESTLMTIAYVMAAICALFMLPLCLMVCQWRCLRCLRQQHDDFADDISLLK

IC50 [nM] | Structure (SMILES)
10 | CCCN(CCC)C(=O)c1cccc(C(=O)N[C@@H](Cc2ccccc2)P(=O)(O)CC(C)C(=O)Nc2ccccc2)c1 (mixture of isomers) [Compound I-18, [(R)-1-(3-dipropylcarbamoyl-benzoylamino)-2-phenyl-ethyl]-(2-phenylcarbamoyl-propyl)-phosphinic acid]
50 | CCCOc1cc(C(=O)N[C@@H](Cc2ccccc2)P(=O)(O)CC(C)C(=O)Nc2ccccc2)cc(N2CCCC2=O)c1 (stereo partly drawn) [Compound I-5, {(R)-1-[3-(2-oxo-pyrrolidin-1-yl)-5-propoxy-benzoylamino]-2-phenyl-ethyl}-(2-phenylcarbamoyl-propyl)-phosphinic acid]
40 | CCCN(CCC)C(=O)c1cccc(C(=O)N[C@@H](Cc2ccccc2)P(=O)(O)CC(C)C(=O)NCCC(C)C)c1 (mixture of isomers) [Compound I-37, [(R)-1-(3-dipropylcarbamoyl-benzoylamino)-2-phenyl-ethyl]-[2-(3-methyl-butylcarbamoyl)-propyl]-phosphinic acid]
200 | CCCN(CCC)C(=O)c1cccc(C(=O)NC(Cc2ccccc2)P(=O)(O)CC(C(=O)Nc2ccc(C)cc2)C(C)C)c1 (centres unmarked) [Compound I-14, [1-(3-dipropylcarbamoyl-benzoylamino)-2-phenyl-ethyl]-(3-methyl-2-p-tolylcarbamoyl-butyl)-phosphinic acid]
20 | CCCN(CCC)C(=O)c1cccc(C(=O)N[C@@H](Cc2ccccc2)P(=O)(O)CC(C)C(=O)NC2CCCCC2)c1 (stereo partly drawn) [Compound I-42, (2-cyclohexylcarbamoyl-propyl)-[(R)-1-(3-dipropylcarbamoyl-benzoylamino)-2-phenyl-ethyl]-phosphinic acid]
